Measured values from patent US20130183384A1, “IMMEDIATE RELEASE MULTI UNIT PELLET SYSTEM” (BOEHRINGER INGELHEIM INTERNATIONAL GMBH, priority 2011, published 2013).

Experiment: Sensitivity of the drug substance to hydrolysis
Assay type: physicochemical
Details: especially at low pH
From the text: Any formulation containing both organic acid as well as drug substance in close contact is therefore at a very high risk to decomposition, particularly in the presence of humidity. Therefore e.g. tartaric acid and active ingredient are kept separate in the formulation until the moment of application. A multiparticulate pellet approach is chosen. The drug substance is layered from an isopropanolic suspension onto seal coated spherical tartaric acid starter cores with approximately 0.6-0.8 mm diameter (FIG. 3 Structure of dabigatran etexilate pellets'.

CCCCCCOC(=O)N=C(N)c1ccc(NCc2nc3cc(C(=O)N(CCC(=O)OCC)c4ccccn4)ccc3n2C)cc1 [Dabigatran etexilate mesilate, dabigatran etexilate methansulfonate]
sensitivity to hydrolysis: sensitive to hydrolysis especially at low pH
